For 16 compounds, IC50 results are on record in patent US20230066011A1, “PYRROLOPYRIMIDINE DERIVATIVE, AND PHARMACEUTICAL COMPOSITION FOR PREVENTING OR TREATING PROTEIN KINASE-RELATED DISEASE COMPRISING SAME AS ACTIVE INGREDIENT” (VORONOI CO., LTD., priority 2019, published 2023).

What all share (format): biochemical
The target in assay [1] is T1, human GST-CLK1 (Homo sapiens, UniProt P49759).
T1 construct: purified human GST-CLK1 (129-end, SignalChem) enzyme; purchased SignalChem
As to the kind of experiment: GST-CLK1 enzyme inhibition, ADP-Glo kinase assay. The conditions noted are these: ATP 10 μM, GST-CLK1 129-end. Summed up:
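ADP-Glo luminescence read-out, relative to untreated solvent control, gave IC50 (nM) from triplicate data sets. Reactions ran an hour at 25° C with 3 ng GST-CLK1 (residues 129-end), 10 μM ATP and specific substrate in Tris-HCl pH 7.4 buffer with MgCl2, BSA and DTT.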
(ADP-Glo first removes unused ATP, then detects ADP through luciferase.)

The target in assay [2] is LRRK2 (G2019S) (Homo sapiens, UniProt Q5S007, G2019S). The assay can be described thus: LRRK2 G2019S enzyme inhibition, ADP-Glo kinase assay. On the set-up: purchased SignalChem L10-12GG. The conditions noted are these: ATP 25 μM. Summed up: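 IC50 derived from luminescent ADP-Glo readout against untreated solvent control, twelve final compound concentrations from 50 μM downward. Reaction: recombinant human LRRK2 G2019S enzyme, 25 μM ATP, substrate, pH 7.4 Tris buffer with MgCl2/BSA/DTT, 25° C. for 2 hours.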
LRRK2 (G2019S), sequence (Q5S007 970-2527 G2019S limits assumed): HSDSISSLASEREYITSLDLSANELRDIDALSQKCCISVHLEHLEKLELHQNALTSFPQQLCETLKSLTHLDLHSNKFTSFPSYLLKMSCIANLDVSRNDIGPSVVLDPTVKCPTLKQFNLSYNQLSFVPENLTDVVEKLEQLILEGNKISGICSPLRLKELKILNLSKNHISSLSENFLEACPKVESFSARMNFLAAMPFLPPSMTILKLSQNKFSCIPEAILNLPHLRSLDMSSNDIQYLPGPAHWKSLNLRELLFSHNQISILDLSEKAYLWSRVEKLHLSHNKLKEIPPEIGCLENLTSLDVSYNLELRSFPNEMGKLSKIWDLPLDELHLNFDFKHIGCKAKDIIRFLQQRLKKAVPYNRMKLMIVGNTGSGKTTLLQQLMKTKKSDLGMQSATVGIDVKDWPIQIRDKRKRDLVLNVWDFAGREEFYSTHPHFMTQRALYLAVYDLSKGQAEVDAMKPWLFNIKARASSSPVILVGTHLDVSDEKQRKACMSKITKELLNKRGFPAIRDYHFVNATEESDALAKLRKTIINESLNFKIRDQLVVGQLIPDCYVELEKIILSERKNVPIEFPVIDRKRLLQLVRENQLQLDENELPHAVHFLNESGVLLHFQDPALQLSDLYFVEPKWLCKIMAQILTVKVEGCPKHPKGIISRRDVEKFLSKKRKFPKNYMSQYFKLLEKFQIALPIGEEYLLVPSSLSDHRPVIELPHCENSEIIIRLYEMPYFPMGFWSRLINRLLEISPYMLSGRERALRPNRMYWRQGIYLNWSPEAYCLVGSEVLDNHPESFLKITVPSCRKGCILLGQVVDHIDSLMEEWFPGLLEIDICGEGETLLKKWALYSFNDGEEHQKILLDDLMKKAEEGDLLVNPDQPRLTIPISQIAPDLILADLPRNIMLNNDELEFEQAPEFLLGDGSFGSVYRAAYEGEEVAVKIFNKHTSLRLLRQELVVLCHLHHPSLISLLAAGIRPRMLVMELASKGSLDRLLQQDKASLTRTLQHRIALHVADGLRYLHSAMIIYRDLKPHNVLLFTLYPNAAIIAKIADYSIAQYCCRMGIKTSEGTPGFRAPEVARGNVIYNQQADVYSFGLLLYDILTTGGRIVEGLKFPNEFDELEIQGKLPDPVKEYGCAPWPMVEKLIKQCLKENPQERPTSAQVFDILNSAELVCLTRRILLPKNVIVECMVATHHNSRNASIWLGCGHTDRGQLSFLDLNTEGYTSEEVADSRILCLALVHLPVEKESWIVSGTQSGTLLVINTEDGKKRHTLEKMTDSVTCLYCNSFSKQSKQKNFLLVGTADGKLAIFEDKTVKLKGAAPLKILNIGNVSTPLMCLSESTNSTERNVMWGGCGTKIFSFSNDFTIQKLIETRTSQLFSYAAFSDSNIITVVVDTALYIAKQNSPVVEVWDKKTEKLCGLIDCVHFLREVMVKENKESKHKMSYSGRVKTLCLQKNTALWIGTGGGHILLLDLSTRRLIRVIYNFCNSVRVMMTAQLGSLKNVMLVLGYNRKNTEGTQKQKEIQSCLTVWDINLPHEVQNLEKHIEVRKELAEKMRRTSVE

Assay [3] deals with LRRK2 (Homo sapiens, UniProt Q5S007). The assay can be described thus: LRRK2 enzyme inhibition, ADP-Glo kinase assay. The conditions noted are these: ATP 10 μM. On the set-up: purchased Invitrogen PR8604B. On the procedure:
To evaluate an inhibitory activity of the compound according to the present invention against LRRK2, LRRK2 (G2019S), DYRK1, CLK1, and TTK kinases, experiments were performed as follows.
Each of the Example compounds was reacted with a purified human LRRK2 (Invitrogen #PR8604B) enzyme to evaluate an ability to inhibit an enzyme using a method as described below. A composition of 40 mM Tris-HCl (pH 7.4), 20 mM MgCl2, 0.5 mg/mL BSA, and 50 μM DTT was used as a reaction buffer, and all reactions of test substances were performed in the reaction buffer. Each of the compounds was diluted […] from a 10 mM DMSO stock using a serial dilution method, and enzyme activities were measured at final compound concentrations of 50, 10, 2, 0.4, 0.08, 0.016, 0.0032, 0.00064, 0.000128, 0.0000256, 0.00000512, and 0.000001024 μM. In the test, purified ATP (10 μM) and an enzyme substrate (0.2 μg) were reacted with a human LRRK2 (25 ng) enzyme at 25° C. for 2 hours, and the enzyme activities were determined using an in vitro ADP-Glo™ kinase assay (Promega). An enzyme-activity reaction solution, an ADP-Glo reaction solution, and an enzyme-ability detection solution were reacted at a ratio of 2:2:1 to measure a degree of inhibition of the enzyme activity with luminescence. The degree of inhibition of the enzyme activity according to the treatment concentration of each of the compounds was calculated based on the fluorescence of the enzyme activity of the solvent control which was not treated with the compound. In this case, the concentration of each of the compounds inhibiting 50% of the enzyme activity was determined to be an IC50 (nM) value, and calculated using Prism (Version 5.01; GraphPad) software.

In assay [4] the target is T2, human GST-DYRK1A (Homo sapiens, UniProt Q13627).
T2 construct: purified human GST-DYRK1A (full length, Thermo Scientifics) enzyme; purchased Thermo Scientifics
The assay can be described thus: GST-DYRK1A enzyme inhibition, ADP-Glo kinase assay. The conditions noted are these: ATP 10 μM, GST-DYRK1A full length, read-out: DYRK1 IC50. Summed up: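 Full-length enzyme (10 ng) was incubated with 10 μM ATP and a specific substrate for 1 h at 25 °C in 40 mM Tris-HCl pH 7.4, 20 mM MgCl2, 0.5 mg/mL BSA, 50 μM DTT. Luminescence was read against a solvent control, and IC50 values were derived from 3 data sets.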

T1 sequence (P49759 129-484 limits assumed): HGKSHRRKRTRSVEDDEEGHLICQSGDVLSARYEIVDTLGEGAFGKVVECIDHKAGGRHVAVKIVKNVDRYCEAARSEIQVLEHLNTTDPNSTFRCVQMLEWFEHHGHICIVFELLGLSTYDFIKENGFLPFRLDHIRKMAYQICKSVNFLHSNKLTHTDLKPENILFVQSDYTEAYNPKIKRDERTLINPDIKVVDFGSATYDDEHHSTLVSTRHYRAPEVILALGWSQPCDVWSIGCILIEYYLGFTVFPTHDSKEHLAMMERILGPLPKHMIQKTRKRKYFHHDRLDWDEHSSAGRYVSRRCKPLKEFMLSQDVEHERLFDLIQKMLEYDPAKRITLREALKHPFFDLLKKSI
LRRK2, sequence (Q5S007 970-2527 limits assumed): as the sequence (Q5S007 970-2527 G2019S limits assumed) above, with S1050G counted along it

The IC50 is the concentration at which inhibition is half-maximal. As for `CCCNc1nc(Nc2ccc(C(=O)N3CCC(N4CCOCC4)CC3)c3c2OCCO3)nc2[nH]cc(C(F)(F)F)c12` [Example 364, (4-morpholino-piperidin-1-yl)(8-((4-(propylamino)-5-(trifluoromethyl)-7H-pyrrolo[2,3-d]pyrimidin-2-yl)amino)-2,3-dihydrobenzo[b] [1,4]dioxin-5-yl)methanone], the IC50 in assay [1], in assay [2], in assay [3] and in assay [4] was under 100 nM each time.

Take `COCC(C)(C)Nc1nc(Nc2ccc(C(=O)N3CCOCC3)c3c2OCCO3)nc2[nH]cc(C(F)(F)F)c12` [Example 178, (8-((4-((1-methoxy-2-methylpropan-2-yl)amino)-5-(trifluoromethyl)-7H-pyrrolo[2,3-d]pyrimidin-2-yl)amino)-2,3-dihydrobenzo[b][1,4]dioxin-5-yl)(morpholino)methanone]: the IC50 in assay [1] is 301 to 1000 nM; in assay [2], under 100 nM; in assay [3] it was under 100 nM; in assay [4] it was 301 to 1000 nM.

Take `O=C(c1ccc(Nc2nc(NC3CCC3)c3c(C(F)(F)F)c[nH]c3n2)c2c1OCCO2)N1CCC(N2CCOCC2)CC1` [Example 378, (8-((4-(cyclobutyl-amino)-5-(trifluoromethyl)-7H-pyrrolo[2,3-d]pyrimidin-2-yl)amino)-2,3-dihydrobenzo[b] [1,4]dioxin-5-yl) (4-morpholino-piperidin-1-yl)methanone]: the IC50 in assay [1] is under 100 nM; in assay [2] it was under 100 nM; in assay [3] it was under 100 nM; in assay [4], 101 to 300 nM.

Consider `CCCCNc1nc(Nc2ccc(C(=O)N3CCOCC3)c3c2OCCO3)nc2[nH]cc(C#N)c12` [Example 134, 4-(butylamino)-2-((8-(morpholine-4-carbonyl)-2,3-dihydrobenzo[b][1,4]dioxin-5-yl)amino)-7H-pyrrolo[2,3-d]pyrimidine-5-carbonitrile], for which the IC50 is 301 to 1000 nM in assay [1], under 100 nM in assay [2], under 100 nM in assay [3] and 301 to 1000 nM in assay [4].

As to `N#Cc1c[nH]c2nc(Nc3ccc(C(=O)N4CCC(N5CCOCC5)CC4)c4c3OCCO4)nc(NC3CCCCC3)c12` [Example 251, 4-(cyclohexylamino)-2-((8-(4-morpholinopiperidine-1-carbonyl)-2,3-dihydrobenzo[b][1,4]dioxin-5-yl)amino)-7H-pyrrolo[2,3-d]pyrimidine-5-carbonitrile], the IC50 in assay [1] is 301 to 1000 nM; in assay [2], under 100 nM; in assay [3], under 100 nM; in assay [4] it was 301 to 1000 nM.

`COc1cc(S(C)(=O)=O)ccc1Nc1nc(NC2CCC2)c2c(C(F)(F)F)c[nH]c2n1` [Example 184, N^4-cyclobutyl-N^2-(2-methoxy-4-(methylsulfonyl)phenyl)-5-(trifluoromethyl)-7H-pyrrolo[2,3-d]pyrimidine-2,4-diamine]: the IC50 in assay [1] was 101 to 300 nM; in assay [2], 101 to 300 nM; in assay [3] it was under 100 nM; in assay [4] it was 301 to 1000 nM.

Regarding `N#Cc1c[nH]c2nc(Nc3ccc(C(=O)N4CCOCC4)c4c3OCCO4)nc(NC3COC3)c12` [Example 135, 2-((8-(morpholine-4-carbonyl)-2,3-dihydrobenzo[b][1,4]dioxin-5-yl)amino)-4-(oxetan-3-ylamino)-7H-pyrrolo[2,3-d]pyrimdine-5-carbonitrile], the IC50 in assay [1], in assay [2], in assay [3] and in assay [4] was 301 to 1000 nM throughout.

Take `CNc1nc(Nc2ccc(C(=O)N3CCC(N4CCOCC4)CC3)c3c2OCCO3)nc2[nH]cc(C#N)c12` [Example 136, 4-(methylamino)-2-((8-(4-morpholinopiperidine-1-carbonyl)-2,3-dihydrobenzo[b][1,4]dioxin-5-yl)amino)-7H-pyrrolo[2,3-d]pyrimidine-5-carbonitrile]: the IC50 is under 100 nM in assay [1], under 100 nM in assay [2], under 100 nM in assay [3] and 101 to 300 nM in assay [4].

For `N#Cc1c[nH]c2nc(Nc3ccc(C(=O)N4CCC(N5CCOCC5)CC4)c4c3OCCO4)nc(NC3CC3)c12` [Example 141, 4-(cyclopropylamino)-2-((8-(4-morpholinopiperidine-1-carbonyl)-2,3-dihydrobenzo[b][1,4]dioxin-5-yl)amino)-7H-pyrrolo[2,3-d]pyrimidine-5-carbonitrile], the IC50 in assay [1] was under 100 nM; in assay [2], under 100 nM; in assay [3], under 100 nM; in assay [4] it was 301 to 1000 nM.

For the compound `CCCNc1nc(Nc2ccc(C(=O)N3CCOCC3)c3c2OCCO3)nc2[nH]cc(C(F)(F)F)c12` [Example 162, morpholino(8-((4-(propylamino)-5-(trifluoromethyl)-7H-pyrrolo[2,3-d]pyrimidin-2-yl)amino)-2,3-dihydrobenzo[b][1,4]dioxin-5-yl)methanone], the IC50 in assay [1] was 301 to 1000 nM; in assay [2] it was under 100 nM; in assay [3] it was under 100 nM; in assay [4], 301 to 1000 nM.

Take `COc1cc(S(C)(=O)=O)ccc1Nc1nc(NC2CC2)c2c(C(F)(F)F)c[nH]c2n1` [Example 376, N^4-cyclopropyl-N^2-(2-methoxy-4-(methylsulfonyl)phenyl)-5-(trifluoromethyl)-7H-pyrrolo[2,3-d]pyrimidine-2,4-diamine]: the IC50 in assay [1] was 101 to 300 nM; in assay [2], under 100 nM; in assay [3], under 100 nM; in assay [4], 301 to 1000 nM.

For the compound `CC(C)Nc1nc(Nc2ccc(C(=O)N3CCOCC3)c3c2OCCO3)nc2[nH]cc(C#N)c12` [Example 122, 4-(isopropylamino)-2-((8-(morpholine-4-carbonyl)-2,3-dihydrobenzo[b][1,4]dioxin-5-yl)amino)-7H-pyrrolo[2,3-d]pyrimidine-5-carbonitrile], the IC50 is under 100 nM in assay [1], under 100 nM in assay [2], under 100 nM in assay [3] and 101 to 300 nM in assay [4].

Consider `COc1cc(S(=O)(=O)N2CCC(N3CCOCC3)CC2)ccc1Nc1nc(NCC(C)C)c2c(C(F)(F)F)c[nH]c2n1` [Example 179, N^4-isobutyl-N^2-(2-methoxy-4-((4-morpholinopiperidin-1-yl)sulfonyl)phenyl)-5-(trifluoromethyl)-7H-pyrrolo[2,3-d]pyrimidine-2,4-diamine], for which the half-inhibitory concentration (IC50) in assay [1] was 301 to 1000 nM; in assay [2] it was 101 to 300 nM; in assay [3] it was under 100 nM; in assay [4], 301 to 1000 nM.

With `COCC(C)(C)Nc1nc(Nc2ccc(C(=O)N3CCOCC3)c3c2OCCO3)nc2[nH]cc(C#N)c12` [Example 131, 4-((1-methoxy-2-methylpropan-2-yl)amino)-2-((8-(morpholine-4-carbonyl)-2,3-dihydrobenzo[b][1,4]dioxin-5-yl)amino)-7H-pyrrolo[2,3-d]pyrimidine-5-carbonitrile], the IC50 is under 100 nM in assay [1], under 100 nM in assay [3] and 301 to 1000 nM in assay [4].

In the case of `CC[C@@H](C)Nc1nc(Nc2ccc(S(C)(=O)=O)cc2OC)nc2[nH]cc(C(F)(F)F)c12` [Example 173, (R)-N^4-(sec-butyl)-N^2-(2-methoxy-4-(methyslulfonyl)phenyl)-5-(trifluoromethyl)-7H-pyrrolo[2,3-d]pyrimidine-2,4-diamine], the IC50 is 301 to 1000 nM in assay [1], under 100 nM in assay [3] and 301 to 1000 nM in assay [4].

On to `CCCNc1nc(Nc2ccc(P3(=O)CCN(C4CC4)CC3)cc2OC)nc2[nH]cc(C(F)(F)F)c12` [Example 401, 1-cyclopropyl-4-(3-methoxy-4-((4-(propylamino)-5-(trifluoromethyl)-7H-pyrrolo[2,3-d]pyrimidin-2-yl)amino)phenyl)-1,4-azaphosphinane 4-oxide], for which the values for the IC50 in assay [1], in assay [3] and in assay [4] were 101 to 300 nM, under 100 nM and 301 to 1000 nM, respectively.
